According to patent publication US7335645B2, “Effectors of dipeptidyl peptidase IV for topical use” (Probiodrug AG, priority 1999, dated 2008):
Where a name gives a salt, the structure may show the parent alone.

Key:
[1] = literature statement (Reinhold et al., 1998); cited from earlier work
[2] = tested on: PepT1; assay: Transport at PepT1-expressing X. leavis oocytes, two-electrode voltage clamp method; assay type: cell-based; set-up: unit not given here; settings: PepT1-expressing oocytes of X. leavis, n.d. = not detectable
Procedure: (§1) Side chain-modified glutamylthiazolidines having a structure H-Glu(X)-Thia were synthesized, with polyethylene glycol or glycine oligomers of various chain lengths being used as X (see Method A for description of synthesis). The binding characteristics of those derivatives and their transportability by the peptide transporter PepT1 were investigated and the Ki values with respect to DP IV were determined (Table 1).

[3] = molecular target: T1, PepT1 (Oryctolagus cuniculus, UniProt P36836); assay: Inhibition of 3H-D-Phe-Ala binding to PepT1-expressing P. pastoris cells; settings: read-out: EC50: effective concentration inhibiting the binding of 3H-D-Phe-Ala to PepT1-expressing P. pastoris cells by 50%
T1 construct: expressed in transfected cells
T1 sequence (P36836 1-707): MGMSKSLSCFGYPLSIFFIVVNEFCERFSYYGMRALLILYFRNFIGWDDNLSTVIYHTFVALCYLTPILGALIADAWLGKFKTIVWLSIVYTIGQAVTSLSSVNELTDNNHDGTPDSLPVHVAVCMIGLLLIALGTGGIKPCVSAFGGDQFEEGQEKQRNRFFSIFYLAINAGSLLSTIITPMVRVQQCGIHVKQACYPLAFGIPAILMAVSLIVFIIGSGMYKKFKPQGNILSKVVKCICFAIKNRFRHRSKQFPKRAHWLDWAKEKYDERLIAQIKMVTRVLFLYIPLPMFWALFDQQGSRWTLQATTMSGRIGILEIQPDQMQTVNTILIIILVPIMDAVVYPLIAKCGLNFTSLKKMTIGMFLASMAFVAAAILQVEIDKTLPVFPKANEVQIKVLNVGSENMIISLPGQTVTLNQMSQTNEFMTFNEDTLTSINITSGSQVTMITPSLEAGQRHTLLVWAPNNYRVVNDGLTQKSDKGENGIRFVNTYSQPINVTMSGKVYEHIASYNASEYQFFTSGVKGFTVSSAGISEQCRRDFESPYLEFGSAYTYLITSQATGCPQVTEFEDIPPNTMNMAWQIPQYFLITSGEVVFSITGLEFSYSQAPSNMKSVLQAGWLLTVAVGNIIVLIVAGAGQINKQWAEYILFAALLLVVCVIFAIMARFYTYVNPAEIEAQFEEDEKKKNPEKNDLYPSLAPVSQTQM
Procedure: as §1

[4] = molecular target: T2, plasma-DP IV (Rattus norvegicus, UniProt P14740); assay: Inhibition of plasma-DP IV after oral administration in healthy Wistar rats; assay type: in vivo; settings: 5 μmol/300 g rat
T2 construct: from tissue; host or cells: plasma of Wistar rats after oral dosing
T2 sequence (P14740 38-767 limits assumed): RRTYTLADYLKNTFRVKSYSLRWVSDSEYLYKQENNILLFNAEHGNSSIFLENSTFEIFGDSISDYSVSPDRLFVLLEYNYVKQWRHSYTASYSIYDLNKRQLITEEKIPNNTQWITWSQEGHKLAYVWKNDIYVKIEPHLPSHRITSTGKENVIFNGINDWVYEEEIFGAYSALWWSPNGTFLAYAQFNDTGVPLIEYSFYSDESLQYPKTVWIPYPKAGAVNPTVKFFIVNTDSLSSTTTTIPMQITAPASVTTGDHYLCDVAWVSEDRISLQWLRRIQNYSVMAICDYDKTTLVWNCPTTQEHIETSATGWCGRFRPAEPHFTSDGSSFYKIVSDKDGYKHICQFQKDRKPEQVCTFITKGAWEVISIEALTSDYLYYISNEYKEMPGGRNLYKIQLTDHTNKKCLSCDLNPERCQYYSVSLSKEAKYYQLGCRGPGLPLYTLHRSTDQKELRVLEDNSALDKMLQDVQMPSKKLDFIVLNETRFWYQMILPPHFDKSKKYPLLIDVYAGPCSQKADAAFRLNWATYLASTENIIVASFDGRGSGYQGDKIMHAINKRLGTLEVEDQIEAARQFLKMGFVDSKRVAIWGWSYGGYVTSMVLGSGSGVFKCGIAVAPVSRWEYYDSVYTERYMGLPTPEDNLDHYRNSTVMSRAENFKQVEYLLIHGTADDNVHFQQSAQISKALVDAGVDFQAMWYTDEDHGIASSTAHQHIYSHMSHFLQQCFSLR
Procedure: FIG. 1: Systemic action of orally administered DP IV-inhibitors in healthy Wistar rats.
The course, over time, of the percentage inhibition of plasma-DP IV activity following oral administration of 5 μmol of inhibitor per 300 g of rat (n=2) is shown.
The inhibition of plasma-DP IV (systemic action) was investigated following oral administration of side chain-modified DP IV-inhibitors ([…]) compared with unmodified inhibitors in healthy Wistar rats.

N[C@@H](CCC(=O)NCC(=O)O)C(=O)N1CCSC1 [Glu(Gly)-Thia]
Transport of the inhibitor [1]: transported completely

N[C@@H](CCC(=O)NCC(=O)NCC(=O)NCC(=O)O)C(=O)N1CCSC1 (as salt: trifluoroacetate) [H-Glu(Gly3)-Thia]
melting point: 91 to 94 °C

NC(CCC(=O)O)C(=O)N1CCSC1 (stereo not drawn) [H-Glu-Thia]
Imax: inward currents generated by the transport [2]: 35 ± 13
EC50 [3]: 1.1 mM

H-Glu(PEG)-Thia
EC50 [3]: > 10 mM

H-Gly(NHOH)-Thia
Imax: inward currents generated by the transport [2]: 42 ± 11
EC50 [3]: 3.18 mM

N[C@@H](CCCCNC(=O)OCc1ccc([N+](=O)[O-])cc1)C(=O)N1CCSC1 [Lys(Z-NO2)-Thia]
Transport of the inhibitor [1]: transported completely

N[C@@H](CCC(=O)NCC(=O)NCC(=O)NCC(=O)NCC(=O)NCC(=O)O)C(=O)N1CCSC1 [H-Glu(Gly5)-Thia]
Systemic action (inhibition of plasma-DP IV) after oral administration [4]: no systemic action of the orally administered active ingredient is detectable
